For 7 molecules, MIC results are on record in patent publication US9416144B2, “Benzoxazine oxazolidinone compound, preparation method and application thereof” (priority 2012, dated 2016).

In brackets after ≈: the same amount, converted by molar mass.

What all share (experiment): In vitro antibacterial activity, MIC by agar double dilution method
Holding throughout (assay type): cell-based

Assay [1] has as its system Staphylococcus aureus sensitive strains (5 strains). The settings on record: clinical isolates. An excerpt: (§1) Experimental method: The agar double dilution method (Antimicrob. Agents and Chemother, 40, 1996, 720-726) was used to determine the minimum inhibitory concentration (MIC) of the series of compounds of the invention and the positive control drug linezolid for the test strains. The multipoint inoculation system (Denley A400) was employed to inoculate the bacteria on the agar plate surface with different concentrations of drugs; inoculation amount on each point was about 10^6 CFU/mL. The plates were incubated at 35° C. for 16 hrs before the results were observed. The lowest drug concentration contained in the Petri dish without bacterial growth was used as the minimum inhibitory concentration (MIC value) of the drug fir that strain.
(§2) Test strains: All the test strains were clinically isolated pathogens which were collected from the Nanjing region, and they were re-identified by routine methods before use. 31 strains of the clinically isolated pathogens were chosen, including 6 strains of Enterococcus, 5 Staphylococcus aureus sensitive strains; 5 Staphylococcus epidermidis sensitive strains; 6 Staphylococcus aureus resistant strains; 5 Staphylococcus epidermidis resistant strains; and 4 Streptococcus pneumoniae resistant strains.
(§3) Compounds to be tested were first added 2 ml of DMSO to help them fully dissolved, then added sterile double distilled water to the desired concentration; to all the Petri dish with added drug liquid were added 20 mL MIT medium which was heat-melted to be liquid-like, to make the final drug concentration in the Petri dish to be 64, 32, 16, 8, 4, 2, 1, 0.5, 0.25, 0.125, 0.0625, and 0.031 μg/mL.
(§4) The positive control group was LZ (linezolid, brand name Zyvox, approved by the FDA in 2000 to be firstly sold in the United States, which is the first and also the only one of oxazolidinone antibacterial drugs allowed to enter clinical application).

Assay [2] concerns Staphylococcus epidermidis sensitive strains (5 strains). Conditions: clinical isolates.
Text: as §1, §2, §3, §4

The subject of assay [3] is Enterococcus (6 strains). The settings on record: clinical isolates, 35° C. 16 hrs.
Text: as §1, §2, §3, §4

The test system of assay [4] is Staphylococcus epidermidis resistant strains (5 strains). The settings on record: clinical isolates.
Text: as §1, §2, §3, §4

Assay [5] has as its system Streptococcus pneumoniae resistant strains (4 strains). The settings on record: clinical isolates.
Text: as §1, §2, §3, §4

Assay [6] has as its system Staphylococcus aureus resistant strains (6 strains). Conditions: clinical isolates.
Text: as §1, §2, §3, §4

For orientation: MIC means the least concentration at which growth counts as inhibited. The low end stands for greater potency, the high end for weaker potency.

As for `O=C1O[C@@H](CO)CN1c1ccc(-c2ccc3c(c2)OC[C@H]2[C@H](CO)OC(=O)N32)cn1` [Compound 26, (3R,3aS)-3-(hydroxylmethyl)-7-(6-((R)-5-(hydroxylmethyl)-2-oxo-oxazolidin-3-yl)pyridin-3-yl)-3a,4-dihydrobenzo[b]oxazolo[3,4-d][1,4]oxazin-1(3H)-one], the MIC in assay [1] is 0.5 to 1 µg/mL (≈ 1.21 to 2.42 µM); in assay [2], 0.5 to 1 µg/mL (≈ 1.21 to 2.42 µM); in assay [3] it was 0.5 to 1 µg/mL (≈ 1.21 to 2.42 µM); in assay [4] it was 0.5 to 1 µg/mL (≈ 1.21 to 2.42 µM); in assay [5], 1 µg/mL (≈ 2.42 µM); in assay [6], 0.5 to 1 µg/mL (≈ 1.21 to 2.42 µM).
With `CN1C[C@@H](c2ccc(-c3ccc4c(c3)OC[C@H]3[C@H](CO)OC(=O)N43)cn2)OC1=O` [Compound 27, (3R,3aS)-3-(hydroxylmethyl)-7-(6-((R)-3-methyl-2-oxazolidin-5-yl)pyridin-3-yl)-3a,4-dihydrobenzo[b]oxazolo[3,4-d][1,4]oxazin-1(3H)-one], the MIC is 1 µg/mL (≈ 2.52 µM) in assay [1]; 1 µg/mL (≈ 2.52 µM) in assay [2]; 1 µg/mL (≈ 2.52 µM) in assay [3]; 0.5 to 1 µg/mL (≈ 1.26 to 2.52 µM) in assay [4]; 0.25 to 0.5 µg/mL (≈ 0.629 to 1.26 µM) in assay [5]; 1 µg/mL (≈ 2.52 µM) in assay [6].
Consider `CN1C[C@H](c2ccc(-c3ccc4c(c3)OC[C@H]3[C@H](CO)OC(=O)N43)cn2)OC1=O` [Compound 28, (3R,3aS)-3-(hydroxylmethyl)-7-(6-((S)-3-methyl-2-oxazolidin-5-yl)pyridin-3-yl)-3a,4-dihydrobenzo[b]oxazolo[3,4-d][1,4]oxazin-1(3H)-one], for which the MIC in assay [1] was 2 µg/mL (≈ 5.03 µM); in assay [2], 2 µg/mL (≈ 5.03 µM); in assay [3], 2 µg/mL (≈ 5.03 µM); in assay [4] it was 1 to 2 µg/mL (≈ 2.52 to 5.03 µM); in assay [5] it was 2 µg/mL (≈ 5.03 µM); in assay [6], 2 µg/mL (≈ 5.03 µM).
In the case of `NC1(c2ccc(-c3ccc4c(c3)OC[C@H]3[C@H](CO)OC(=O)N43)cn2)CC1` [Compound 29, (3R,3aS)-7-(6-(1-aminocyclopropyl)pyridin-3-yl)-3-(hydroxylmethyl)-3a,4-dihydrobenzo[b]oxazolo[3,4-d][1,4]oxazin-1(3H)-one], the minimum inhibitory concentration (MIC) in assay [1] was 2 to 4 µg/mL (≈ 5.66 to 11.3 µM); in assay [2], 1 µg/mL (≈ 2.83 µM); in assay [3], 2 µg/mL (≈ 5.66 µM); in assay [4], 1 to 2 µg/mL (≈ 2.83 to 5.66 µM); in assay [5] it was 1 to 2 µg/mL (≈ 2.83 to 5.66 µM); in assay [6], 1 µg/mL (≈ 2.83 µM).
Take `NCc1ccc(-c2ccc3c(c2)OC[C@H]2[C@H](CO)OC(=O)N32)cn1` [Compound 30, (3R,3aS)-7-(6-(aminomethyl)pyridin-3-yl)-3-(hydroxylmethyl)-3a,4-dihydrobenzo[b]oxazolo[3,4-d][1,4]oxazin-1(3H)-one]: the MIC in assay [1] is 2 to 4 µg/mL (≈ 6.11 to 12.2 µM); in assay [2], 1 to 2 µg/mL (≈ 3.05 to 6.11 µM); in assay [3], 4 to 8 µg/mL (≈ 12.2 to 24.4 µM); in assay [4], 0.5 to 4 µg/mL (≈ 1.53 to 12.2 µM); in assay [5], 4 to 16 µg/mL (≈ 12.2 to 48.9 µM); in assay [6], 2 to 4 µg/mL (≈ 6.11 to 12.2 µM).
On to `O=C1CNCCN1c1ccc(-c2ccc3c(c2)OC[C@H]2[C@H](CO)OC(=O)N32)cn1` [Compound 31, (3R,3aS)-3-(hydroxylmethyl)-7-(6-(2-oxopiperazin-1-yl)pyridin-3-yl)-3a,4-dihydrobenzo[b]oxazolo[3,4-d][1,4]oxazin-1(3H)-one], for which the minimum inhibitory concentration (MIC) is 2 to 4 µg/mL (≈ 5.05 to 10.1 µM) in assay [1]; 2 to 4 µg/mL (≈ 5.05 to 10.1 µM) in assay [2]; 16 µg/mL (≈ 40.4 µM) in assay [3]; 2 to 4 µg/mL (≈ 5.05 to 10.1 µM) in assay [4]; 4 µg/mL (≈ 10.1 µM) in assay [5]; 2 to 4 µg/mL (≈ 5.05 to 10.1 µM) in assay [6].
As to `NCC1CN(c2ccc(-c3ccc4c(c3)OC[C@H]3[C@H](CO)OC(=O)N43)cn2)C(=O)O1` (stereo partly drawn) [Compound 33, (3R,3aS)-7-(6-(5-(aminomethyl)-2-oxooxazolidin-3-yl)pyridin-3-yl)-3-(hydroxylmethyl)-3a,4-dihydrobenzo[b]oxazolo[3,4-d][1,4]oxazin-1(3H)-one], the minimal inhibitory concentration (MIC) in assay [1] is 1 to 2 µg/mL (≈ 2.42 to 4.85 µM); in assay [2], 0.5 to 1 µg/mL (≈ 1.21 to 2.42 µM); in assay [3], 1 to 2 µg/mL (≈ 2.42 to 4.85 µM); in assay [4], 2 µg/mL (≈ 4.85 µM); in assay [5], 2 µg/mL (≈ 4.85 µM); in assay [6] it was 1 to 2 µg/mL (≈ 2.42 to 4.85 µM).
